System: spontaneously hypertensive rats (SHR)
Assay: Insulin sensitivity evaluation by glucose clamp technique in spontaneously hypertensive rats (SHR)
Type: in vivo, rat
Conditions: for M-value (average glucose infusion rate, index of insulin sensitivity): n=10, vehicle 5.9±0.5
Method: For evaluation of insulin resistance, 23-week-old spontaneously hypertensive rats (SHR) were used. Vehicle (0.5% methyl cellulose solution administration) and compound A (0.3 and 1 mg/kg/day) were orally administered for 2 weeks, after which an insulin sensitivity evaluation test by a glucose clamp technique was performed. The rats were grouped such that each parameter was leveled based on the glucose level and plasma insulin value before start of the drug administration. SHR were fasted from the evening of the day before the operation of the glucose clamp technique.
The glucose clamp technique was performed according to the following procedures. The rats were anesthetized with pentobarbital sodium (50 mg/kg i.p.) and catheters [PR45 (trademark), NATUME SEISAKUSHO CO., LTD.] for blood collection, for intravenous injection of insulin [novolin R injection 40 (trademark), Novo Nordisk Pharma Ltd.] and for intravenous injection of glucose [Otsuka glucose injection 50% (trademark), Otsuka Pharmaceutical Co., Ltd.] were each placed in the right common carotid artery, left femoral vein and right femoral vein, respectively. The glucose level was measured using a simplified glucose meter [Advantage II (trademark), Roche Diagnostics Corporation]. Using a peristaltic pump [MINIPULS 3 (trademark), Gilson Company, Inc.], insulin was constantly infused continuously at an injection rate of 40 and 20 mU/kg/min for 5 and 3 min, respectively, to afford a high insulin state, and thereafter high insulin state was maintained at 8 mU/kg/min.. Glucose was constantly infused intravenously to maintain the range of initial value±10% of blood glucose, using a different peristaltic pump. […] Glucose was constantly infused for-90 min and an average of glucose infusion rate for the period of 40 min from 50 min to 90 min after the start of the infusion was calculated and used as an index showing the insulin sensitivity (M-value). […] For statistic analysis, Williams' test was used and significance was evaluated at a risk rate of less than 2.5%.

CCOc1nc2cccc(C(=O)O)c2n1Cc1ccc(-c2ccccc2-c2nc(=O)o[nH]2)cc1 [compound A, 2-Ethoxy-1-[[2′-(5-oxo-2,5-dihydro-1,2,4-oxadiazol-3-yl)biphenyl-4-yl]methyl]-1H-benzimidazole-7-carboxylic acid]
M-value (average glucose infusion rate, index of insulin sensitivity) (0.3 mg/kg/day orally for 2 weeks): 7.8 ± 0.5 mg/kg/min
M-value (average glucose infusion rate, index of insulin sensitivity) (1 mg/kg/day orally for 2 weeks): 8.6 ± 0.6 mg/kg/min
insulin sensitivity enhancing effect (0.3 and 1 mg/kg/day orally for 2 weeks): dose-dependent insulin sensitivity enhancing effect

Source: patent US20050032854A1, “Insulin resistance improving agents” (priority 2001, published 2005)
